“Also recorded” adds a separate entry of the source.
Legend:
Assay type in all cases: cell-based, rat
[1] = system: PERK activation (ATF4 mRNA); experiment: qRT-PCR of ATF4 mRNA (Tm-induced PERK activation) in INS-1 cells; details: compound 5 μM, Tm 0.5 μg/ml, 4 h and 8 h, normalized to cyclophilin A, listed as WO3i
Procedure: ATF4 mRNA levels by qRT-PCR in INS-1 cells treated for 4 h (A) and 8 h (B) with WO3i at 5 μM in the presence or absence of Tm (0.5 μg/ml). Data are presented as the fold change after normalized to cyclophilin A mRNA.
(§1) Total RNA was extracted from INS-1 cells using TRIzol reagent (Invitrogen, Carlsbad, CA) according to the manufacturer's protocol. 2 μg of total RNA was reverse transcribed using Superscript IV kit (Invitrogen). Real-time PCR was performed with a CFX96 Real-Time PCR detection system (Bio-Rad, CA) using SYBR Select Master Mix (Applied Biosystems, CA).
(§2) Relative mRNA levels were normalized against Cyclophilin A and were determined by ΔΔCt calculated from the difference in ΔCt values between the target gene and Cyclophilin A with and without treatment, based on comparative CT (cycle threshold) method.

[2] = system: CHOP mRNA; experiment: qRT-PCR of Tm-induced CHOP mRNA expression in INS-1 cells; details: compound 5 μM, Tm 0.5 μg/ml, 4 h and 8 h, normalized to cyclophilin A, listed as WO3i
Procedure: CHOP mRNA levels by qRT-PCR in INS-1 cells treated for 4 h (A) and 8 h (B) with WO3i at 5 μM in the presence or absence of Tm (0.5 μg/ml). Data are presented as the fold change after normalized to cyclophilin A mRNA.
as §1, §2

[3] = system: INS-1 β cells; experiment: Live-cell phase-contrast images of INS-1 cells under ER stress; details: Tm 0.5 μg/mL, compound 5 μM, 24 h, phase-contrast/bright field
Procedure: INS-1 cells were treated with or without Tm (0.5 μg/mL) in the presence of WO3i (5 μM) or DMSO (0.1%) for 24 h, and live-cell phase-contrast images were acquired (magnification 10×).

[4] = system: INS-1 β cells; experiment: Western blotting of cleaved caspase-3 and PARP (Tm-induced apoptosis); details: INS-1 cells, Tm 0.3 μg/ml, 24 h, co-treatment at 1 and 5 μM, Western blot
Procedure: INS-1 cells were treated with or without Tm (0.3 μg/ml) in the presence of WO3i at indicated concentrations or DMSO for indicated times. Cleaved caspase-3 and PARP were determined by Western blotting. GADPH was used as a loading control. The data shown are representative of 3 independent experiments.
INS-1 cells cultured in 60-mm dishes were washed with PBS and lysed with lysis buffer (Cell Signaling Technology, Danvers, MA) containing protease and phosphatase inhibitors (Thermo). Aliquots of 20 μg total protein were separated on 10% SDS-PAGE gels (Life Technologies) and transferred to PVDF membranes (Life Technologies). The membranes were probed with primary antibodies followed by the appropriate HRP-conjugated secondary antibodies. Blots were then developed using Pierce ECL Western Blotting Substrate (cat no 32106). The primary antibodies and dilutions used were: cleaved caspase 3 (1:1000, 9661, Cell Signaling Technology, MA, USA), and PARP (1:1000, 9542L, Cell Signaling Technology), and GAPDH (1:1000, SC-32233, Santa Cruz Biotechnology). Secondary antibodies used: goat anti rabbit IgG and goat anti-mouse IgG, 1:5000; Santa Cruz Biotechnology, Santa Cruz, CA).
To determine whether the increase in cell viability following treatment with WO3i was caused by a suppression of apoptotic cell death, levels of cleaved caspase-3 and cleaved PARP were assessed by Western blotting. […] However, upon severe ER stress, caspase 3 undergoes proteolytic cleavage to form the active enzyme, which in turns cleaves PARP, to trigger apoptotic cell death.

[5] = system: ATF6 activation (BiP mRNA); experiment: qRT-PCR of BiP mRNA (Tm-induced ATF6 activation) in INS-1 cells; details: compound 5 μM, Tm 0.5 μg/ml, 4 h and 8 h, normalized to cyclophilin A, listed as WO3i
Procedure: BiP mRNA levels by qRT-PCR in INS-1 cells treated for 4 h (A) and 8 h (B) with WO3i at 5 μM in the presence or absence of Tm (0.5 μg/ml). Data are presented as the fold change after normalized to cyclophilin A mRNA.
as §1, §2

[6] = system: INS-1 cells; experiment: Cell viability assay: protection of INS-1 cells from tunicamycin (Tm)-induced loss of viability (CellTiter-Glo, intracellular ATP); details: Rattus norvegicus, INS1
Procedure: INS-1 cells were resuspended in RPMI 1640 medium containing 10% FBS and seeded at 5×10^3 cells/well in a 384-well plate. After overnight 24 h incubation, compounds were added to the wells at the indicated concentration using a pin-transfer robot (PerkinElmer). Tm in RPMI 1640 medium containing 10% FBS was then added at a final concentration of 0.15 μg/mL. After 72 h, the medium was removed and 20 μL of CellTiter-Glo reagent (Promega) was added. Luminescence was measured 10 min later using a Synergy Neo2 plate reader (Biotek).
Hydroxy benzamide (HBA) derivatives were synthesized based on various scaffolds and evaluated for their viability of rat INS-1 β cells in the presence of tunicamycin (Tm), a potent ER stress inducer that inhibits N-linked glycosylation of proteins. The maximum activities and the concentrations that reach half-maximal activity (EC50) of the compounds were evaluated by the degree of increase in viability of INS-1 cells co-treated with the compounds in the presence of Tm compared with Tm treatment alone.

[7] = system: IRE1α activation (Xbp1-s mRNA); experiment: qRT-PCR of spliced Xbp1 mRNA (Tm-induced IRE1α activation) in INS-1 cells; details: compound 5 μM, Tm 0.5 μg/ml, 4 h and 8 h, normalized to cyclophilin A, listed as WO3i
Procedure: Spliced Xbp1 (Xbp1-s) mRNA levels by qRT-PCR in INS-1 cells treated for 4 h (A) and 8 h (B) with WO3i at 5 μM in the presence or absence of Tm (0.5 μg/ml). Data are presented as the fold change after normalized to cyclophilin A mRNA.
as §1, §2

## O=C(NCc1ccc(C(F)(F)F)cc1)c1cccc(O)c1 [Compound 3i, 3-Hydroxy-N-(4-(trifluoromethyl)benzyl)benzamide]
[1]
  Tm-induced ATF4 mRNA level (PERK activation): abolished; also recorded: suppresses
[2]
  Tm-induced CHOP mRNA expression: markedly diminished; also recorded: suppresses
[3]; listed as WO3M
  Preservation of INS-1 β cell viability under ER stress (images): significantly more cells were preserved
[3]; listed as WO3i
  Preservation of INS-1 β cell viability under ER stress (images): preserves the INS-1 β cell viability
[4]
  Tm-induced apoptosis: cleavage of caspase-3 and PARP: suppresses
[4]; listed as WO3
  Tm-induced apoptosis: cleavage of caspase-3 and PARP: almost completely abolished
[4]; listed as WO3M
  Tm-induced apoptosis: cleavage of caspase-3 and PARP: suppresses
[4]; listed as WO3i
  Tm-induced apoptosis: cleavage of caspase-3 and PARP: suppresses
[5]
  Tm-induced BiP mRNA level (ATF6 activation): completely suppressed; also recorded: suppresses
[6]; % rescue from Tm (0.15 μg/mL)-induced reduction of INS-1 cell viability (intracellular ATP), Tm alone 0%, DMSO without Tm 100%, 72 h, read-out: Maximum % of Protection
  Emax: 100%
[6]; INS-1 cell viability, Tm 0.15 μg/mL, ten 2-fold serial titration points, GraphPad Prism
  EC50: 190 nM
[7]
  Tm-induced spliced Xbp1 (Xbp1-s) mRNA level (IRE1α activation): eliminated; also recorded: suppresses
